Laboratory results: patent USRE40387E1, “Pharmaceutical compositions, dosage forms and methods for oral administration of epothilones” (Bristol-Myers Squibb Company, priority 2001, dated 2008)

Columns and labels:
[1] = Pharmacokinetics in rats (intraarterial, oral, intraduodenal); format: in vivo, male Sprague Dawley rats
Procedure: Plasma samples from pharmacokinetic/pharmacodynamic studies were analyzed for the concentration of Compound (A) using an LC/MS/MS (liquid chromatography/mass spectrometry/mass spectrometry) assay with a standard curve range of 5 to 20,000 ng/mL (10 to 40,000 nM) for studies in mice and 2 to 1000 ng/mL (4 to 2000 nM) for studies in rats and dogs. In pharmacodynamic studies, concentrations of Compound (A) were determined using the LC/MS/MS assay with a standard curve range of 5 to 20,000 ng/mL (10 to 40,000 nM) in mouse plasma. The LC/MS/MS assay was also used to determine the concentrations of Compound (B), a degradation product of Compound (A) formed in the stock/dosing solution or in vivo, in rat and dog plasma. The structure of Compound (B) is: [drawing 9]
Compound (A) was given as a single intraarterial (2 mg/kg; 10 min infusion), oral (8 mg/kg), and intraduodenal (8 mg/kg) dose to fasted male Sprague Dawley rats (n×3-6 per group). All dosing solutions were prepared in 20% ethanol. Plasma samples were obtained over a period of 24 h after dosing and the concentration of Compound (A) was determined using the LC/MS/MS assay.

CYP2D6 = CYP2D6 (Homo sapiens, UniProt P10635); test: Inhibition of recombinant human CYP2D6 (deethylation of 3-cyano-7-ethoxycoumarin); format: in vitro ADME; conditions: recombinant human CYP isoform
Procedure: The ability of Compound (A) to inhibit the major human cytochrome P450s (CYPs) responsible for the metabolism of drugs was evaluated in vitro using recombinant human CYP isoforms. IC50 values for inhibition of deethylation of 3-cyano-7-ethoxycoumarin (CYP1A2, CYP2C9, CYP2C19, and CYP2D6) and for inhibition of dealkylation of benzoyl-resorufin (CYP3A4) were determined.

Chain of CYP2D6 (P10635 whole entry, canonical isoform): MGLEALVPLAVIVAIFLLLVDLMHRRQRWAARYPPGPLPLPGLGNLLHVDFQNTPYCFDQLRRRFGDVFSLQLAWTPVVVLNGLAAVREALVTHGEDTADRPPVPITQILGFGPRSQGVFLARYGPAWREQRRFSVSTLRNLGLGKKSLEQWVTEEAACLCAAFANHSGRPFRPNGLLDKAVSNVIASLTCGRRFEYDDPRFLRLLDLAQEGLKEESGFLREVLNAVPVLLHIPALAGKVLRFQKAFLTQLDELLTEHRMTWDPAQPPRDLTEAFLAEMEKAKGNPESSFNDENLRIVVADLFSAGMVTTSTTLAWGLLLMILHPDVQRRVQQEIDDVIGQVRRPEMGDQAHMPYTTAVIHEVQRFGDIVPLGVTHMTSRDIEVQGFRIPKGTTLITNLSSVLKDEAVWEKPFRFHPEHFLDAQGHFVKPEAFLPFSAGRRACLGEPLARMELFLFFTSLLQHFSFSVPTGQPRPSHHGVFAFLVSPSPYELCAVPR

Structure (SMILES): C/C(=C\c1csc(C)n1)[C@@H]1C[C@@H]2O[C@]2(C)CCC[C@H](C)[C@H](O)[C@@H](C)C(=O)C(C)(C)[C@@H](O)CC(=O)N1 (relative stereo) [Compound (A), [1S-[1R*,3R*(E),7R*,10S*,11R*,12R*,16S*]]-7,11-dihydroxy 8,8,10,12,16-pentamethyl-3-[1-methyl-2-(2-methyl-4-thiazolyl)ethenyl-4-aza-17-oxobicyclo[14.1.0]heptadecane-5,9-dione]
- CLT (mean) ([1]; intraarterial 2 mg/kg): 56 mL/min/kg
- VSS (mean) ([1]; intraarterial 2 mg/kg): 23 L/kg
- mean T-HALF ([1]; intraarterial 2 mg/kg): 9.6 h
- CLT as percent of liver blood flow ([1]; intraarterial 2 mg/kg, liver blood flow 56 mL/min/kg): 100%
- Tmax ([1]; intraduodenal 8 mg/kg): 4.8 min
- absolute oral bioavailability ([1]; intraduodenal 8 mg/kg): 27%
- mean CMAX ([1]; intraduodenal 8 mg/kg): 642 ng/mL
- Tmax ([1]; oral 8 mg/kg): 10.2 min
- absolute oral bioavailability ([1]; oral 8 mg/kg): 7.5%
- mean CMAX ([1]; oral 8 mg/kg): 228 ng/mL
- inhibition of CYP2D6 (CYP2D6): did not inhibit
